# In patent US20070117743A1, “New antitumoral compounds” (priority 2003, published 2007):
# Where a SMILES comes first, the peptide text is derived from it. Bridges are numbered along the chain shown (N, C = ends). [ ]: non-standard residue; d: D form. The star is where a group is joined. d(aIle) = CC[C@H](C)[C@@H](N)C(=O)O; d(aThr) = C[C@@H](O)[C@@H](N)C(=O)O; Hexanoyl(5-Me) = CC(C)CCCC(=O)*; Orn = NCCC[C@H](N)C(=O)O; Dhb = C/C=C(\N)C(=O)O
# Columns and labels:
# Type in all cases: cell-based, human
# [1] = test system: LoVo; assay: SRB colorimetric assay of cell growth and viability, LoVo; conditions: 48 hours exposure; for CC50: read-out: LC50 LOVO
# Description: (§1) The finality of this assay is to interrupt the growth of a “in vitro” tumor cell culture by means a continued exhibition of the cells to the sample to be testing.
# (§2) This form of the assay employs 96 well cell culture microplates of 9 mm diameter (Faircloth, 1988; Mosmann, 1983). Most of the cell lines are obtained from American Type Culture Collection (ATCC) derived from different human cancer types.
# (§3) Cells are maintained in RPMI 1640 10% FBS, supplemented with 0.1 g/l penicillin and 0.1 g/l streptomycin sulfate and then incubated at 37° C., 5% CO2 and 98% humidity. For the experiments, cells were harvested from subconfluent cultures using trypsin and resuspended in fresh medium before plating.
# (§4) Cells are seeded in 96 well microtiter plates, at 5×10^3 cells per well in aliquots of 195 μL medium, and they are allowed to attach to the plate surface by growing in drug free medium for 18 hours. Afterward, samples are added in aliquots of 5 μL in a ranging from 10 to 10^−8 μg/mL, dissolved in DMSO:EtOH:PBS (0.5:0.5:99). After 48 hours exposure, the antitumor effect are measured by the SRB methodology: cells are fixed by adding 50 μL of cold 50% (wt/vol) trichloroacetic acid (TCA) and incubating for 60 minutes at 4° C. Plates are washed with deionized water and dried. One hundred μL of SRB solution (0.4% wt/vol in 1% acetic acid) is added to each microtiter well and incubated for 10 minutes at room temperature. Unbound SRB is removed by washing with 1% acetic acid. Plates are air dried and bound stain is solubilized with Tris buffer. Optical densities are read on a automated spectrophotometric plate reader at a single wavelength of 490 nm.
# (§5) The values for mean+/− SD of data from triplicate wells are calculated. Some parameters for cellular responses can be calculated: GI=growth inhibition, TGI=total growth inhibition (cytostatic effect) and LC=cell killing (cytotoxic effect).
# [2] = test system: IGROV-ET; assay: SRB colorimetric assay of cell growth and viability, IGROV-ET; conditions: 48 hours exposure; for CC50: read-out: LC50 IGROV-ET
# Description: as §1, §2, §3, §4, §5
# [3] = test system: A-549; assay: SRB colorimetric assay of cell growth and viability, A-549; conditions: 48 hours exposure; for GI50: read-out: GI50 A-549; for CC50: read-out: LC50 A-549
# Description: as §1, §2, §3, §4, §5
# [4] = test system: HeLa-APL; assay: SRB colorimetric assay of cell growth and viability, HeLa-APL; conditions: 48 hours exposure; for CC50: read-out: LC50 HELA-APL
# Description: as §1, §2, §3, §4, §5
# [5] = test system: DU-145; assay: SRB colorimetric assay of cell growth and viability, DU-145; conditions: 48 hours exposure
# Description: as §1, §2, §3, §4, §5
# [6] = test system: HT-29; assay: SRB colorimetric assay of cell growth and viability, HT-29; conditions: 48 hours exposure; for GI50: read-out: GI50 HT-29; for CC50: read-out: LC50 HT-29
# Description: as §1, §2, §3, §4, §5
# [7] = test system: IGROV-1; assay: SRB colorimetric assay of cell growth and viability, IGROV-1; conditions: 48 hours exposure
# Description: as §1, §2, §3, §4, §5
# [8] = test system: SK-MEL-28; assay: SRB colorimetric assay of cell growth and viability, SK-MEL-28; conditions: 48 hours exposure; for CC50: read-out: LC50 MEL-28
# Description: as §1, §2, §3, §4, §5
# [9] = test system: HeLa; assay: SRB colorimetric assay of cell growth and viability, HeLa; conditions: 48 hours exposure; for CC50: read-out: LC50 HELA
# Description: as §1, §2, §3, §4, §5
# [10] = test system: PANC-1; assay: SRB colorimetric assay of cell growth and viability, PANC-1; conditions: 48 hours exposure; for CC50: read-out: LC50 PANC-1
# Description: as §1, §2, §3, §4, §5
# [11] = test system: K-562; assay: SRB colorimetric assay of cell growth and viability, K-562; conditions: 48 hours exposure; for CC50: read-out: LC50 K-562
# Description: as §1, §2, §3, §4, §5
# [12] = test system: LoVo-Dox; assay: SRB colorimetric assay of cell growth and viability, LoVo-Dox; conditions: 48 hours exposure; for CC50: read-out: LC50 LOVO-DOX
# Description: as §1
# A colorimetric type of assay, using sulforhodamine B (SRB) reaction has been adapted for a quantitative measurement of cell growth and viability [following the technique described by Philip Skehan, et al. (1990), New colorimetric cytotoxicity assay for anticancer drug screening, J. Natl. Cancer Inst., 82:1107-1112].
# as §2, §3, §4, §5
Compound,GI50 [1],TGI LOVO [1],CC50 [1],GI50 [2],TGI IGROV-ET [2],CC50 [2],TGI A-549 [3],GI50 [3],CC50 [3],GI50 [4],TGI HELA-APL [4],CC50 [4],GI50 [5],LC50 (concentration causing 50% net cell kill) [5],TGI DU-145 [5],TGI HT-29 [6],GI50 [6],CC50 [6],GI50 [7],LC50 (concentration causing 50% net cell killing) [7],also measured
"C/C=C1\NC(=O)[C@H](Cc2ccccc2)NC(=O)[C@@H](C(C)C)NC(=O)[C@@H]([C@@H](C)CC)NC(=O)[C@H](NC(=O)[C@H](NC(=O)[C@H](CCCN)NC(=O)[C@H]2CCCN2C(=O)[C@H](NC(=O)[C@@H](NC(=O)[C@@H]2CCCN2C(=O)CCCC(C)C)C(C)C)C(C)C)[C@@H](C)CC)[C@@H](C)OC(=O)[C@H](C(C)C)NC1=O [Compound 55, [Pro^12, noD-Val^13]-KF] ({Hexanoyl(5-Me)}-PV[dV][dP][Orn][d(aIle)][d(aThr)][d(aIle)][dV]F[Dhb]V; ester 7-C)",7270 nM,7.27E−06 Molar,7270 nM,7270 nM,7.27E−06 Molar,7270 nM,7.27E−06 Molar,7270 nM,7270 nM,7270 nM,7.27E−06 Molar,7270 nM,7270 nM,7270 nM,7.27E−06 Molar,7.27E−06 Molar,7270 nM,7270 nM,7270 nM,7270 nM,TGI IGROV [7]: 7.27E−06 Molar; GI50 [8]: 7270 nM; TGI MEL-28 [8]: 7.27E−06 Molar; CC50 [8]: 7270 nM; GI50 [9]: 7270 nM; TGI HELA [9]: 7.27E−06 Molar; CC50 [9]: 7270 nM; GI50 [10]: 7270 nM; TGI PANC-1 [10]: 7.27E−06 Molar; CC50 [10]: 7270 nM; GI50 [11]: 7270 nM; TGI K-562 [11]: 7.27E−06 Molar; CC50 [11]: 7270 nM; GI50 [12]: 7270 nM; TGI LOVO-DOX [12]: 7.27E−06 Molar; CC50 [12]: 7270 nM
"C/C=C1\NC(=O)[C@H](Cc2ccccc2)NC(=O)[C@@H](C(C)C)NC(=O)[C@@H]([C@@H](C)CC)NC(=O)[C@H](NC(=O)[C@H](NC(=O)[C@H](CCCN)NC(=O)[C@H]2CCCN2C(=O)[C@H](NC(=O)[C@@H](NC(=O)[C@@H](NC(=O)[C@@H](Cc2ccccc2)NC(=O)CCCC(C)C)[C@@H](C)O)C(C)C)C(C)C)[C@@H](C)CC)[C@@H](C)OC(=O)[C@H](C(C)C)NC1=O [Compound 36, [D-Phe^13]-KF]",136 nM,9.63E−07 Molar,2440 nM,852 nM,1.74E−06 Molar,3550 nM,5.14E−08 Molar,4.81 nM,990 nM,81.9 nM,6.55E−06 Molar,6550 nM,266 nM,2490 nM,6.75E−07 Molar,1.21E−06 Molar,398 nM,2840 nM,144 nM,2500 nM,TGI IGROV [7]: 9.90E−07 Molar; GI50 [8]: 154 nM; TGI MEL-28 [8]: 7.21E−07 Molar; CC50 [8]: 2200 nM; GI50 [9]: 7.86 nM; TGI HELA [9]: 9.50E−08 Molar; CC50 [9]: 701 nM; GI50 [10]: 6.62 nM; TGI PANC-1 [10]: 2.73E−08 Molar; CC50 [10]: 976 nM; GI50 [11]: 420 nM; TGI K-562 [11]: 1.25E−06 Molar; CC50 [11]: 2900 nM; GI50 [12]: 300 nM; TGI LOVO-DOX [12]: 9.63E−07 Molar; CC50 [12]: 2150 nM
"C/C=C1\NC(=O)[C@H](Cc2ccccc2)NC(=O)[C@@H](C(C)C)NC(=O)[C@@H]([C@@H](C)CC)NC(=O)[C@H](NC(=O)[C@H](NC(=O)[C@H](CCCN)NC(=O)[C@H]2CCCN2C(=O)[C@H](NC(=O)[C@@H](NC(=O)[C@@H](NC(=O)[C@@H](CC(C)C)NC(=O)CCCC(C)C)[C@@H](C)O)C(C)C)C(C)C)[C@@H](C)CC)[C@@H](C)OC(=O)[C@H](C(C)C)NC1=O [Compound 35, [D-Leu^13]-KF]",200 nM,8.04E−07 Molar,2280 nM,684 nM,1.49E−06 Molar,3260 nM,9.58E−07 Molar,124 nM,2650 nM,13.3 nM,1.31E−06 Molar,6700 nM,905 nM,3530 nM,1.79E−06 Molar,1.62E−06 Molar,771 nM,3390 nM,717 nM,3240 nM,TGI IGROV [7]: 1.53E−06 Molar; GI50 [8]: 1170 nM; TGI MEL-28 [8]: 2.10E−06 Molar; CC50 [8]: 3790 nM; GI50 [9]: 878 nM; TGI HELA [9]: 1.74E−07 Molar; CC50 [9]: 3430 nM; GI50 [10]: 751 nM; TGI PANC-1 [10]: 1.87E−06 Molar; CC50 [10]: 4670 nM; GI50 [11]: 1230 nM; TGI K-562 [11]: 2.30E−06 Molar; CC50 [11]: 4280 nM; GI50 [12]: 158 nM; TGI LOVO-DOX [12]: 3.46E−07 Molar; CC50 [12]: 871 nM
"C/C=C1\NC(=O)[C@H](Cc2ccccc2)NC(=O)[C@@H](C(C)C)NC(=O)[C@@H]([C@@H](C)CC)NC(=O)[C@H](NC(=O)[C@H](NC(=O)[C@H](CCCN)NC(=O)[C@H]2CCCN2C(=O)[C@H](NC(=O)[C@@H](NC(=O)[C@H](CCC(=O)O)NC(=O)CCCC(C)C)C(C)C)C(C)C)[C@@H](C)CC)[C@@H](C)OC(=O)[C@H](C(C)C)NC1=O [Compound 56, [Glu^12, noD-Val^13]-KF] ({Hexanoyl(5-Me)}-EV[dV][dP][Orn][d(aIle)][d(aThr)][d(aIle)][dV]F[Dhb]V; ester 7-C)",2220 nM,7.11E−06 Molar,≥ 7110 nM,1390 nM,7.11E−06 Molar,≥ 7110 nM,7.11E−06 Molar,168 nM,≥ 7110 nM,≥ 7110 nM,7.11E−06 Molar,≥ 7110 nM,1950 nM,≥ 7110 nM,7.11E−06 Molar,7.11E−06 Molar,≥ 7110 nM,≥ 7110 nM,2780 nM,≥ 7110 nM,TGI IGROV [7]: 7.11E−06 Molar; GI50 [8]: ≥ 7110 nM; TGI MEL-28 [8]: 7.11E−06 Molar; CC50 [8]: ≥ 7110 nM; GI50 [9]: 370 nM; TGI HELA [9]: 7.11E−06 Molar; CC50 [9]: ≥ 7110 nM; GI50 [10]: 118 nM; TGI PANC-1 [10]: 7.11E−06 Molar; CC50 [10]: ≥ 7110 nM; GI50 [11]: ≥ 7110 nM; TGI K-562 [11]: 7.11E−06 Molar; CC50 [11]: ≥ 7110 nM; GI50 [12]: ≥ 7110 nM; TGI LOVO-DOX [12]: 7.11E−06 Molar; CC50 [12]: ≥ 7110 nM
